# Data published in the supplement of paper PMC10307832.
# How the values were obtained:
# Experiment in all cases: relative viability (nuclei count vs DMSO), 5 days (fraction); higher = more cells survive
# [1] = compound: CCN(CCO)CCCC(C)Nc1ccnc2cc(Cl)ccc12 [Hydroxychloroquine] + Cc1cc(Nc2cc(N3CCN(C)CC3)nc(Sc3ccc(NC(=O)C4CC4)cc3)n2)n[nH]1 [Tozasertib] (partner 0.1 µM)
# Summary of the method: (§1)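 Medians of duplicate plates are given as relative viability. That measure is the nuclei count in treated wells divided by the count in vehicle wells. Counts were taken on 4× images of lung cancer cell lines in 1536-well plates, 5 days after pin-tool dosing the day after seeding with one drug alone or a fixed anchor-drug dose plus five library-drug doses (not always all listed) in √10 steps.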
# [2] = compound: CCN(CCO)CCCC(C)Nc1ccnc2cc(Cl)ccc12 [Hydroxychloroquine] + COc1cccc2cc(-c3nc([C@H]4CC[C@H](C(=O)O)CC4)n4ncnc(N)c34)[nH]c12 [OSI-027] (partner 0.5 µM)
# Summary of the method: as §1
# [3] = compound: CCN(CCO)CCCC(C)Nc1ccnc2cc(Cl)ccc12 [Hydroxychloroquine] + C[C@]1(O)C[C@@H](c2nc(-c3ccc4ccc(-c5ccccc5)nc4c3)c3c(N)nccn32)C1 [Linsitinib] (partner 1 µM)
# Summary of the method: as §1
# [4] = compound: CCN(CCO)CCCC(C)Nc1ccnc2cc(Cl)ccc12 [Hydroxychloroquine] + C[C@@H](Oc1cc(-c2cnn(C3CCNCC3)c2)cnc1N)c1c(Cl)ccc(F)c1Cl [Crizotinib] (partner 1 µM)
# Summary of the method: as §1
Cell Line,relative viability ([1]; first compound 0.5 µM),relative viability ([1]; first compound 1.581 µM),relative viability ([1]; first compound 5 µM),relative viability ([1]; first compound 15.81 µM),relative viability ([1]; first compound 50 µM),relative viability ([2]; first compound 0.5 µM),relative viability ([2]; first compound 1.581 µM),relative viability ([2]; first compound 5 µM),relative viability ([2]; first compound 15.81 µM),relative viability ([2]; first compound 50 µM),relative viability ([3]; first compound 0.5 µM),relative viability ([3]; first compound 1.581 µM),relative viability ([3]; first compound 5 µM),relative viability ([3]; first compound 15.81 µM),relative viability ([3]; first compound 50 µM),relative viability ([4]; first compound 0.5 µM),relative viability ([4]; first compound 1.581 µM),relative viability ([4]; first compound 5 µM),relative viability ([4]; first compound 15.81 µM),relative viability ([4]; first compound 50 µM)
NCI-H1755,0.672,0.548,0.569,0.656,0.587,0.797,0.617,0.628,0.649,0.574,1.02,0.838,0.933,0.972,0.878,0.983,0.768,0.86,0.866,0.879
NCI-H2228,0.281,0.201,0.285,0.259,0.321,0.617,0.569,0.634,0.548,0.669,0.958,0.647,0.706,0.632,0.703,0.461,0.46,0.46,0.491,0.427
NCI-H2087,0.265,0.22,0.317,0.261,0.284,0.584,0.375,0.529,0.672,0.78,1.01,0.887,0.893,0.951,0.965,1.02,0.982,1.09,0.864,1.11
LU99A,0.243,0.229,0.281,0.256,0.284,0.304,0.258,0.327,0.283,0.329,0.525,0.478,0.437,0.527,0.503,0.566,0.533,0.593,0.606,0.66
NCI-H1355,0.616,0.493,0.513,0.557,0.508,0.509,0.301,0.371,0.332,0.44,0.872,0.879,0.896,0.809,0.892,1.08,1.01,1.11,1.08,1.1
NCI-H596,1.16,0.994,0.858,0.865,0.987,0.755,0.672,0.625,0.761,0.883,0.947,1.11,1.13,1.04,0.982,0.918,1.04,1.05,1.05,1.01
NCI-H727,0.646,0.509,0.597,0.561,0.593,0.672,0.639,0.796,0.555,0.632,0.279,0.276,0.306,0.305,0.357,0.839,0.815,0.804,0.908,0.885
NCI-H661,0.358,0.32,0.355,0.397,0.349,0.668,0.52,0.629,0.583,0.697,0.537,0.361,0.564,0.542,0.598,0.939,0.962,1.05,0.927,1.09
NCI-H650,0.736,0.692,0.681,0.763,0.708,0.566,0.557,0.61,0.555,0.545,0.907,0.802,,0.828,0.818,0.787,0.63,,0.675,0.835
201T,0.941,0.954,0.951,0.966,1.08,0.731,0.738,0.721,0.827,0.965,1.07,0.987,1.07,1,1.13,1.02,1,1.07,0.978,0.821
NCI-H1650,0.466,0.318,0.483,0.419,0.346,0.653,0.729,0.634,0.562,0.577,,,,,,0.92,0.903,0.999,1.01,1.04
NCI-H2170,0.721,0.751,0.67,0.813,0.728,0.63,0.776,0.685,0.702,0.806,,,,,,1.24,1.24,1.35,1.27,1.57
NCI-H1563,,,,,,0.736,0.625,0.79,0.794,0.716,1.03,1.04,1.18,1.06,1.17,0.808,0.833,0.848,0.83,0.806
EBC-1,,,,,,,,,,,0.953,0.505,0.992,0.769,0.915,0.196,0.181,0.181,0.189,0.189
Calu-6,,,,,,,,,,,0.864,0.881,1.11,0.938,0.942,0.84,0.855,0.847,0.896,0.579
